# pIC50: −log10 of the molar value.
# Legend:
# DOHH2 cells = test: Cell proliferation assay (MTS), DOHH2 cells, 120 h; type: cell-based; settings: Homo sapiens, DOHH-2, 120 h
# Method in brief: (§1)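 RS4;11 and DOHH2 cells at 5000 cells/well in RPMI-1640 with 10% FBS were treated with compound at 1.5–10000 nM final, nine points, at 37 °C, 5% CO2. Exposure was 72 h for RS4;11 and 120 h for DOHH2. MTS was added for 2 h, absorbance read at 490/650 nm, and IC50 calculated.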
# RS4;11 cells = test: Cell proliferation assay (MTS), RS4;11 cells, 72 h; type: cell-based; settings: Homo sapiens, RS4-11, 72 h
# Method in brief: as §1
Compound,pIC50 (RS4;11 cells),pIC50 (DOHH2 cells)
"COC(=O)N1CCN(C[C@@H]2COc3cc(S(=O)(=O)NC(=O)c4ccc(N5CCN(CC6=C(c7ccc(Cl)cc7)CC(C)(C)CC6)CC5)cc4Oc4cnc5[nH]ccc5c4)cc([N+](=O)[O-])c3N2)CC1 [Example 2-93, methyl (R)-4-((7-(N-(2-((1H-pyrrolo[2,3-b]pyridin-5-yl)oxy)-4-(4-((4′-chloro-5,5-dimethyl-3,4,5,6-tetrahydro-[1,1′-biphenyl]-2-yl)methyl)piperazin-1-yl)benzoyl)sulfamoyl)-5-nitro-3,4-dihydro-2H-benzo[b][1,4]oxazin-3-yl)methyl)piperazine-1-carboxylate]",7.40,7.80
"CC1(C)CCC(CN2CCN(c3ccc(C(=O)NS(=O)(=O)c4cc5c(c([N+](=O)[O-])c4)N[C@@H](CN4CCN(S(C)(=O)=O)CC4)CO5)c(Oc4cnc5[nH]ccc5c4)c3)CC2)=C(c2ccc(Cl)cc2)C1 [Example 2-95, (S)-2-((1H-pyrrolo[2,3-b]pyridin-5-yl)oxy)-4-(4-((4′-chloro-5,5-dimethyl-3,4,5,6-tetra-hydro-[1,1′-biphenyl]-2-yl)methyl)piperazin-1-yl)-N-((3-((4-(methylsulfonyl)piperazin-1-yl)methyl)-5-nitro-3,4-dihydro-2H-ben-zo[b][1,4]oxazin-7-yl)sulfonyl)benzamide]",7.35,7.72
"CC(=O)N1CCN(C[C@H]2COc3cc(S(=O)(=O)NC(=O)c4ccc(N5CCN(CC6=C(c7ccc(Cl)cc7)CC(C)(C)CC6)CC5)cc4Oc4cnc5[nH]ccc5c4)cc([N+](=O)[O-])c3N2)CC1 [Example 2-96, (S)-2-((1H-pyrrolo[2,3-b]pyridin-5-yl)oxy)-N-((3-((4-acetylpiperazin-1-yl)methyl)-5-nitro-3,4-dihydro-2H-benzo[b][1,4]oxazin-7-yl)sulfonyl)-4-(4-((4′-chloro-5,5-dimethyl-3,4,5,6-tetrahydro-[1,1′-biphenyl]-2-yl)meth-yl)piperazin-1-yl)benzamide]",7.14,7.07
"CCC(=O)N1CCN(C[C@H]2COc3cc(S(=O)(=O)NC(=O)c4ccc(N5CCN(CC6=C(c7ccc(Cl)cc7)CC(C)(C)CC6)CC5)cc4Oc4cnc5[nH]ccc5c4)cc([N+](=O)[O-])c3N2)CC1 [Example 2-97, (S)-2-((1H-pyrrolo[2,3-b]pyridin-5-yl)oxy)-4-(4-((4′-chloro-5,5-dimethyl-3,4,5,6-tetra-hydro-[1,1′-biphenyl]-2-yl)methyl)piperazin-1-yl)-N-((5-nitro-3-((4-propionylpiperazin-1-yl)methyl)-3,4-dihydro-2H-benzo[b] [1,4]oxazin-7-yl)sulfonyl)benzamide]",7.64,7.64
"C[C@@H]1CNc2c(cc(S(=O)(=O)NC(=O)c3ccc(N4CCN(CC5=C(c6ccc(Cl)cc6)CC(C)(C)CC5)CC4)cc3Oc3cnc4[nH]ccc4c3)cc2[N+](=O)[O-])O1 [Example 2-100, (R)-2-((1H-pyrrolo[2,3-b]pyridin-5-yl)oxy)-4-(4-((4′-chloro-5,5-dimethyl-3,4,5,6-tetra-hydro[1,1′-biphenyl]-2-yl)methyl)piperazin-1-yl)-N-((2-methyl-5-nitro-3,4-dihydro-2H-benzo[b][1,4]oxazin-7-yl)sulfonyl)benza-mide]",7.66,7.51

# The next molecules have a higher pIC50 (RS4;11 cells) than those just listed; values first:
pIC50 (RS4;11 cells),Compound,pIC50 (DOHH2 cells)
7.70,"CC1(C)CCC(CN2CCN(c3ccc(C(=O)NS(=O)(=O)c4cc5c(c([N+](=O)[O-])c4)N[C@H](CN4CCN(C(=O)C6CC6)CC4)CO5)c(Oc4cnc5[nH]ccc5c4)c3)CC2)=C(c2ccc(Cl)cc2)C1 [Example 2-94, (R)-2-((1H-pyrrolo[2,3-b]pyridin-5-yl)oxy)-4-(4-((4′-chloro-5,5-dimethyl-3,4,5,6-tetra-hydro-[1,1′-biphenyl]-2-yl)methyl)piperazin-1-yl)-N-((3-((4-(cyclopropanecarbonyl)piperazin-1-yl)methyl)-5-nitro-3,4-dihydro-2H-benzo[b][1,4]oxazin-7-yl)sulfonyl)benza-mide]",9.00
7.77,"COC(=O)N1CCN(C[C@H]2COc3cc(S(=O)(=O)NC(=O)c4ccc(N5CCN(CC6=C(c7ccc(Cl)cc7)CC(C)(C)CC6)CC5)cc4Oc4cnc5[nH]ccc5c4)cc([N+](=O)[O-])c3N2)CC1 [Example 2-98, methyl (S)-4-((7-(N-(2-((1H-pyrrolo[2,3-b]pyridin-5-y)oxy)-4-(4-((4′-chloro-5,5-dimethyl-3,4,5,6-tetrahydro[1,1′-biphenyl]-2-yl)methyl)piperazin-1-yl)benzoyl)sulfamoyl)-5-nitro-3,4-dihydro-2H-benzo[b][1,4]oxazin-3-yl)methyl)piperazine-1-carboxylate]",7.42
8.10,"CC1(C)CCC(CN2CCN(c3ccc(C(=O)NS(=O)(=O)c4cc5c(c([N+](=O)[O-])c4)N[C@H](CN4CCN(S(C)(=O)=O)CC4)CO5)c(Oc4cnc5[nH]ccc5c4)c3)CC2)=C(c2ccc(Cl)cc2)C1 [Example 2-90, (R)-2-((1H-pyrrolo[2,3-b]pyridin-5-yl)oxy)-4-(4-((4′-chloro-5,5-dimethyl-3,4,5,6-tetra-hydro-[1,1′-biphenyl]-2-yl)methyl)piperazin-1-yl)-N-((3-((4-(methylsulfonyl)piperazin-1-yl)methyl)-5-nitro-3,4-dihdyro-2H-ben-zo[b][1,4]oxazin-7-yl)sulfonyl)benzamide]",7.66
8.10,"CC1(C)CCC(CN2CCN(c3ccc(C(=O)NS(=O)(=O)c4cc5c(c([N+](=O)[O-])c4)N[C@@H](CN4CCN(C(=O)C6CC6)CC4)CO5)c(Oc4cnc5[nH]ccc5c4)c3)CC2)=C(c2ccc(Cl)cc2)C1 [Example 2-99, (S)-2-((1H-pyrrolo[2,3-b]pyridin-5-yl)oxy)-4-(4-((4′-chloro-5,5-dimethyl-3,4,5,6-tetra-hydro-[1,1′-biphenyl]-2-yl)methyl)piperazin-1-yl)-N-((3-((4-(cyclopropanecarbonyl)piperazin-1-yl)methyl)-5-nitro-3,4-dihydro-2H-benzo[b][1,4]oxazin-7-yl)sulfonyl)benza-mide]",7.70
8.30,"CC(=O)N1CCN(C[C@@H]2COc3cc(S(=O)(=O)NC(=O)c4ccc(N5CCN(CC6=C(c7ccc(Cl)cc7)CC(C)(C)CC6)CC5)cc4Oc4cnc5[nH]ccc5c4)cc([N+](=O)[O-])c3N2)CC1 [Example 2-91, (R)-2-((1H-pyrrolo[2,3-b]pyridin-5-yl)oxy)-N-((3-((4-acetylpiperazin-1-yl)methyl)-5-nitro-3,4-dihydro-2H-benzo[b][1,4]oxazin-7-yl)sulfonyl)-4-(4-((4′-chloro-5,5-dimethyl-3,4,5,6-tetrahydro-[1,1′-biphenyl]-2-yl)meth-yl)piperazin-1-yl)benzamide]",7.31
8.30,"CCC(=O)N1CCN(C[C@@H]2COc3cc(S(=O)(=O)NC(=O)c4ccc(N5CCN(CC6=C(c7ccc(Cl)cc7)CC(C)(C)CC6)CC5)cc4Oc4cnc5[nH]ccc5c4)cc([N+](=O)[O-])c3N2)CC1 [Example 2-92, (R)-2-((1H-pyrrolo[2,3-b]pyridin-5-yl)oxy)-4-(4-((4′-chloro-5,5-dimethyl-3,4,5,6-tetra-hydro-[1,1′-biphenyl]-2-yl)methyl)piperazin-1-yl)-N-((5-nitro-3-((4-propionylpiperazin-1-yl)methyl)-3,4-dihydro-2H-benzo[b] [1,4]oxazin-7-yl)sulfonyl)benzamide]",7.10

# Reference: patent publication US11091478B2 (Fochon Pharmaceuticals, Ltd., priority 2017, dated 2021)
